Literature values, collected in patent US20170258815A1, “CORTICOSTEROID FORMULATIONS AND METHODS FOR THE TREATMENT OF JOINT PAIN IN PATIENTS WITH DIABETES” (Flexion Therapeutics, Inc., priority 2016, published 2017).

Test system: patients with controlled DM and OA of the knee

Compound: CC1(C)O[C@@H]2C[C@H]3[C@@H]4CCC5=CC(=O)C=C[C@]5(C)[C@@]4(F)[C@@H](O)C[C@]3(C)[C@]2(C(=O)CO)O1 [TCA, Triamcinolone acetonide]
- Levels of blood glucose after IA injection compared with IA hyaluronic acid: significantly increased levels of blood glucose

Compound: CC(C)(C)CC(=O)OCC(=O)[C@@]12OC(C)(C)O[C@@H]1C[C@H]1[C@@H]3CCC4=CC(=O)C=C[C@]4(C)[C@@]3(F)[C@@H](O)C[C@@]12C [triamcinolone hexacetonide]
- Levels of blood glucose after IA injection compared with IA hyaluronic acid: significantly increased levels of blood glucose
